Experimental data taken from US20220251081A1, “HETEROBICYCLIC INHIBITORS OF MAT2A AND METHODS OF USE FOR TREATING CANCER” (priority 2019, published 2022).
pIC50: −log10 of the molar value.

Legend:
HCT116 MTAP +/+ = assay: Inhibition of cellular proliferation, 4 days, Cell Titer Glo, HCT116 MTAP+/+; assay type: cell-based; settings: Homo sapiens, HCT-116, 96 h, IC50 score, read-out: 4 Day Relative Growth Inhibition (MTAP +/+)
Protocol: (§1) Assay for Inhibition of Cellular Proliferation
(§2) Test compound impact on cancer cell growth was assessed by treating cancer cells with compound for 4 days and then measuring proliferation using an ATP-based cell proliferation readout (Cell Titer Glo, Promega Corporation).
(§3) In a typical assay an isogenic pair of HCT116 human colon carcinoma cell lines which vary only in MTAP deletion status (HCT116 MTAP +/+ and HCT116 MTAP−/−) were plated in 96-well dishes at appropriate cell density. Following 24 hours, cells were then treated with the candidate MAT2A inhibitor. Prior to addition to cells, the compound was first serially diluted in 100% DMSO, typically as a 3-fold serial dilution starting at 500× top dose with 10 dose points including DMSO only control. Compound was then transferred to a working stock plate in cell culture media by adding 5 μL of compound in DMSO to 495 μL of cell culture media. This working stock was then added to cells via a further 5-fold dilution, by adding 25 μL of working stock to 100 μL of cells in culture media. Following compound addition, cells were incubated at 37° C./5% C02 for 4 days.
(§4) To measure inhibition of cellular proliferation, cells were allowed to equilibrate to room temperature for 30 minutes, and were then treated with 125 μL of Cell Titer Glo reagent. The plate was then covered with aluminum foil and shaken for 15 minutes to ensure complete mixing and full cell lysis. Luminescent signal was then measured using a plate-based luminometer Veritas version 1.9.2 using ATP standard curve to confirm assay reproducibility from run to run. This luminescence measure was converted to a proliferation index by subtracting from each data point the ATP luminescence signal measured from a bank (no cells) well and dividing by the ATP luminescence signal measured in 0.2% DMSO control well adjusted for signal in blank well. Compound activity was then represented as a percentage change in proliferation relative to a within-plate DMSO control against log 10 of compound concentration in molar (M) units.

MAT2A homodimer = biological target: T1, MAT2A homodimer (Homo sapiens, UniProt P31153); assay: Biochemical assay: inhibition of recombinant MAT2A homodimer (phosphate release, PiColorLock Gold); settings: MAT2A IC50 score; read-out: Enzyme Inhibition
T1 construct: inferred from Ni sepharose purification and imidazole elution; made in house; host or cells: Sf9 insect cells, recombinant baculovirus (Bac to Bac, pFASTBAC1 vector)
Summary of the method: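 Baculovirus/Sf9-expressed, Ni-purified MAT2A at 4 μg/mL in pH 8.0 Tris/KCl/MgCl2/EDTA/BSA buffer, preincubated with compound 60 min at 25 °C. Started with ATP and L-methionine substrate mix (500 μM and 40 μM, stock in mix), 60 min at 25 °C; released phosphate by PiColorLock Gold against a phosphate standard curve.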

[1] = test system: SAM in HCT116 human colon carcinoma cell line with deleted MTAP gene; assay: Cellular assay of target engagement (SAM): SAM level by LC-MS/MS after 72 hrs; assay type: cell-based; settings: HCT-116, IC50 score, read-out: Cell 72 h SAM Inhibition (MTAP −/−)
Protocol: Cellular Assay of Target Engagement (SAM)
Measurement of MAT2A activity in cells was made by direct quantitation of the abundance of the product of its enzymatic activity, SAM. Cancer cells were treated with candidate MAT2A inhibitors for a suitable incubation period, and the cells were then lysed using a reagent which quenched any further enzyme activity. Soluble metabolites including SAM were collected and SAM itself was directly measured from the lysate using quantitative LC-MS/MS.
A typical assay was performed using an HCT116 human colon carcinoma cell line which was genetically engineered to delete the MTAP gene (commercially available from Horizon Discovery). This cell line was utilized because it was determined that loss of the MTAP gene predicts sensitivity to MAT2A inhibitors. Cells were plated in 96-well dishes at appropriate cell density. Following 24 hours, cells were then treated with the candidate MAT2A inhibitor. Prior to addition to cells, the compound was first serially diluted in 100% DMSO, typically as a 3-fold serial dilution starting at 500× top dose with 10 dose points including DMSO only control. Compound was then transferred to a working stock plate in cell culture media by adding 5 μL of compound in DMSO to 495 μL of cell culture media. This working stock was then added to cells via a further 5-fold dilution, by adding 25 μL of working stock to 100 μL of cells in culture media. Following compound addition, cells were incubated at 37° C./5% CO2 for 72 hrs.
To quantitate SAM levels following compound treatment, cells were gently washed once in ammonium carbonate buffer (75 mM at pH 7.4), placed on dry ice, and lysed with metabolite extraction buffer (80% cold methanol and 20% water (v/v) with acetic acid at 1M final concentration with 200 ng/mL deuterated d3-SAM as internal control). Following centrifugation at 4° C. at 3,200 rpm for 30 minutes, the supernatant was collected and stored at −80° C. until analysis by Liquid Chromatography with tandem Mass Spectrometry (LC-MS/MS). LC-MS/MS analysis was performed using an API6500 Mass Spectrometer (Sciex, Framingham, Mass., USA) operating in positive ion spray mode and equipped with a Waters UPLC Acquity (Waters, Milford, Mass., USA) BEH Amide column. Multiple Reaction Monitoring data was acquired for SAM and the d3-SAM standard, using a mass transition pair at m/z 399.2→250.1 and 402.2→250.1, respectively. In a typical LC-MS/MS analysis, the initial flow rate was 0.5 ml/min of 25% mobile phase A (acetonitrile and water at 5:95 (v/v) with 1% formic acid and 10 mM ammonium acetate) and 75% mobile phase B (acetonitrile and water at 95:5 (v/v) with 1% formic acid and 10 mM ammonium acetate), 0.2-0.5 minutes with 75%-35% mobile phase B, 25%-65% mobile phase A, at 0.5 min 65% mobile phase A and 35% mobile phase B, 1.0-1.1 minutes with 35%-75% mobile phase B, 65%-25% mobile phase A, at 1.1 min 25% mobile phase A and 75% mobile phase B with a total run time of 1.5 minutes.

HCT116 MTAP-/- = assay: Inhibition of cellular proliferation, 4 days, Cell Titer Glo, HCT116 MTAP-/-; assay type: cell-based; settings: Homo sapiens, HCT-116, 96 h, IC50 score, read-out: 4 Day Relative Growth Inhibition (MTAP −/−)
Protocol: as §1, §2, §3, §4

T1 sequence (P31153 whole entry): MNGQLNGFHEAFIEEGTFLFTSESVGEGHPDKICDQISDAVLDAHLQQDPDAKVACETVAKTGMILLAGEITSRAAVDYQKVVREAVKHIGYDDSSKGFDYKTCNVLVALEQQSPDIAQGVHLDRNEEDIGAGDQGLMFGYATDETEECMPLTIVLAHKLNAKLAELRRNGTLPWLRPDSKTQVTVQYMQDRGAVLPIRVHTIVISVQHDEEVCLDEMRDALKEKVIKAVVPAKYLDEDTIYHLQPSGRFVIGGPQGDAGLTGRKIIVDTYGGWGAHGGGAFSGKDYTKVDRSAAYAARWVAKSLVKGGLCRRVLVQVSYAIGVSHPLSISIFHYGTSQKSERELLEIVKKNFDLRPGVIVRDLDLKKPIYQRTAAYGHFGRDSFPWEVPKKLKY

Compound	pIC50 (HCT116 MTAP +/+)	pIC50 (MAT2A homodimer)	pIC50 [1]	pIC50 (HCT116 MTAP-/-)
CCOc1ccc2cc(-c3ccc4nn(C)cc4c3)c(=O)n(-c3ccc(OC(F)(F)F)nc3)c2n1 [Example 152]	≤ 6.00	> 7.00	> 7.00	> 7.00
CCOc1ccc2cc(-c3ccc4nn(C)cc4c3)c(=O)n(-c3ccc(OC(F)(F)F)cc3)c2n1 [Example 153]	≤ 6.00	> 7.00	> 7.00	> 7.00
CCOc1ccc2cc(-c3ccc4nn(C)cc4c3)c(=O)n(-c3ccc(OC(F)F)nc3)c2n1 [Example 155]	≤ 6.00	> 7.00	> 7.00	> 7.00
CCOc1ccc2cc(-c3ccc4nn(C)cc4c3)c(=O)n(-c3ccc(OC)nc3)c2n1 [Example 157]	6.00 to 7.00	> 7.00	> 7.00	> 7.00
CCOc1ccc2cc(-c3ccc(OC)cc3)c(=O)n(-c3ccc(OC(F)F)nc3)c2n1 [Example 158]	≤ 6.00	> 7.00	6.00 to 7.00	6.00 to 7.00
CCOc1ccc2cc(-c3ccc(OC)cc3)c(=O)n(-c3ccc(NC)nc3)c2n1 [Example 159]	≤ 6.00	> 7.00	> 7.00	6.00 to 7.00
CCOc1ccc2cc(-c3ccc4ncccc4c3)c(=O)n(-c3ccc(Cl)cc3)c2n1 [Example 160]	≤ 6.00	> 7.00	> 7.00	6.00 to 7.00
CCOc1ccc2cc(-c3ccc4nn(C)cc4c3)c(=O)n(-c3ccc(C4CC4)nc3)c2n1 [Example 161]	6.00 to 7.00	> 7.00	> 7.00	> 7.00
CCOc1ccc2cc(-c3ccc(OC)cc3)c(=O)n(-c3ccc(C4CC4)nc3)c2n1 [Example 162]	≤ 6.00	> 7.00	6.00 to 7.00	6.00 to 7.00
CCOc1ccc2cc(-c3ccc(OC)cc3)c(=O)n(-c3ccc(C4CC4)cc3)c2n1 [Example 163]	≤ 6.00	> 7.00	6.00 to 7.00	6.00 to 7.00
CCOc1cc(C)c2cc(-c3ccc4nn(C)cc4c3)c(=O)n(-c3ccc(Cl)cc3)c2n1 [Example 164]	≤ 6.00	> 7.00	> 7.00	> 7.00
CCOc1ccc2cc(-c3ccc4nn(C)cc4c3)c(=O)n(-c3ccc(C4CC4)cc3)c2n1 [Example 165]	≤ 6.00	> 7.00	> 7.00	> 7.00
Cn1cc2cc(-c3cc4ccc(OCC(F)(F)F)nc4n(-c4ccc(C5CC5)nc4)c3=O)ccc2n1 [Example 166]	≤ 6.00	> 7.00	> 7.00	> 7.00
CNc1ccc(-n2c(=O)c(-c3ccc4nn(C)cc4c3)cc3ccc(OCC(F)(F)F)nc32)cn1 [Example 167]	≤ 6.00	> 7.00	> 7.00	> 7.00
Cn1cc2cc(-c3cc4ccc(OCC(F)F)nc4n(-c4ccc(C5CC5)nc4)c3=O)ccc2n1 [Example 168]	≤ 6.00	> 7.00	> 7.00	> 7.00
Cn1cc2cc(-c3cc4ccc(OCC(F)F)nc4n(-c4ccc5scnc5c4)c3=O)ccc2n1 [Example 169]	≤ 6.00	> 7.00	> 7.00	6.00 to 7.00
COc1ccc(-n2c(=O)c(-c3ccc(OC)nc3)cc3cnc(NCC(F)(F)F)nc32)cc1 [Example 171]	≤ 6.00	> 7.00	6.00 to 7.00	≤ 6.00
COc1ccc(-n2c(=O)c(-c3ccc4nccn4c3)cc3cnc(NCC(F)(F)F)nc32)cc1 [Example 172]	≤ 6.00	> 7.00	> 7.00	6.00 to 7.00
COc1ccc(-n2c(=O)c(-c3ccc4c(c3)CCO4)cc3cnc(NCC(F)(F)F)nc32)cc1 [Example 173]	≤ 6.00	> 7.00	> 7.00	> 7.00
COc1ccc(-n2c(=O)c(-c3ccc4[nH]cnc4c3)cc3cnc(NCC(F)(F)F)nc32)cc1 [Example 174]	≤ 6.00	> 7.00	> 7.00	≤ 6.00
COc1ccc(-n2c(=O)c(-c3ccc4ncncc4c3)cc3cnc(NCC(F)(F)F)nc32)cc1 [Example 176]	6.00 to 7.00	> 7.00	> 7.00	> 7.00
COc1ccc(-n2c(=O)c(-c3ccc4c(c3)OCO4)cc3cnc(NCC(F)(F)F)nc32)cc1 [Example 177]	≤ 6.00	> 7.00	> 7.00	≤ 6.00
COc1ccc(-n2c(=O)c(-c3ccc(=O)n(C)c3)cc3cnc(NCC(F)(F)F)nc32)cc1 [Example 180]	≤ 6.00	> 7.00	6.00 to 7.00	6.00 to 7.00
COc1ccc(-n2c(=O)c(-c3cn[nH]c3)cc3cnc(NCC(F)(F)F)nc32)cc1 [Example 183]	≤ 6.00	> 7.00	6.00 to 7.00	≤ 6.00
COc1ccc(-n2c(=O)c(-c3ccc4nccnc4c3)cc3cnc(NCC(F)(F)F)nc32)cc1 [Example 185]	≤ 6.00	> 7.00	> 7.00	6.00 to 7.00
COc1ccc(-n2c(=O)c(-c3ccc4nnccc4c3)cc3cnc(NCC(F)(F)F)nc32)cc1 [Example 186]	≤ 6.00	> 7.00	> 7.00	6.00 to 7.00
COc1ccc(-n2c(=O)c(-c3cnn(C)c3)cc3cnc(NCC(F)(F)F)nc32)cc1 [Example 187]	≤ 6.00	> 7.00	6.00 to 7.00	6.00 to 7.00
COc1ccc(-n2c(=O)c(-c3ccc4ncsc4c3)cc3cnc(NCC(F)(F)F)nc32)cc1 [Example 188]	≤ 6.00	> 7.00	> 7.00	6.00 to 7.00
COc1ccc(-n2c(=O)c(-c3ccc4ncoc4c3)cc3cnc(NCC(F)(F)F)nc32)cc1 [Example 189]	≤ 6.00	> 7.00	6.00 to 7.00	6.00 to 7.00
